Measurements taken from US20220125765A1, “PHARMACEUTICAL COMBINATIONS COMPRISING MEBENDAZOLE AND A STRONG OR MODERATE CYP1A2 INHIBITOR” (ZEPHAPHARM LTD, priority 2019, published 2022).
Where two headings read alike, the source gives them in different places.

Key:
[1] = system: RXF 1183L; assay: 2D monolayer CellTiter-Blue viability, renal cancer RXF 1183L; format: cell-based; conditions: for Test/Control (%) at Drug Concentration: 72 h
Method: (§1) Mebendazole was tested in vitro across a panel of 12 tumor cell lines of ovarian and renal cancer by using a 2D monolayer assay. […] OVXF 899L and RXF 486L are P-gp expressing, multidrug resistant cell lines.
(§2) Anti-tumor activity is expressed as absolute and relative IC50/70 values, calculated by 4-parameter non-linear curve fit.

[2] = system: SXFO Saos-2; assay: 2D monolayer CellTiter-Blue viability, osteosarcoma Saos-2; format: cell-based; conditions: 72 h
Method: Seventeen compounds, including mebendazole (Batch no. […] Efficacy of compounds was assessed using CellTiter-Blue® Cell Viability Assay. Anti-tumor activity is expressed as absolute and relative IC50 and IC70 values, calculated by non-linear regression analysis.

[3] = molecular target: T1, human OATP1B1 transporter (Homo sapiens, UniProt Q9Y6L6); assay: Uptake into OATP1B1 and empty vector transfected HEK293 cells; format: in vitro ADME; conditions: for Uptake rate Mean: 2 min; for Uptake ratio: OATP1B1 vs control
T1 construct: expressed in transfected cells; host or cells: HEK293 (transient transfection)
T1 sequence (Q9Y6L6 1-691): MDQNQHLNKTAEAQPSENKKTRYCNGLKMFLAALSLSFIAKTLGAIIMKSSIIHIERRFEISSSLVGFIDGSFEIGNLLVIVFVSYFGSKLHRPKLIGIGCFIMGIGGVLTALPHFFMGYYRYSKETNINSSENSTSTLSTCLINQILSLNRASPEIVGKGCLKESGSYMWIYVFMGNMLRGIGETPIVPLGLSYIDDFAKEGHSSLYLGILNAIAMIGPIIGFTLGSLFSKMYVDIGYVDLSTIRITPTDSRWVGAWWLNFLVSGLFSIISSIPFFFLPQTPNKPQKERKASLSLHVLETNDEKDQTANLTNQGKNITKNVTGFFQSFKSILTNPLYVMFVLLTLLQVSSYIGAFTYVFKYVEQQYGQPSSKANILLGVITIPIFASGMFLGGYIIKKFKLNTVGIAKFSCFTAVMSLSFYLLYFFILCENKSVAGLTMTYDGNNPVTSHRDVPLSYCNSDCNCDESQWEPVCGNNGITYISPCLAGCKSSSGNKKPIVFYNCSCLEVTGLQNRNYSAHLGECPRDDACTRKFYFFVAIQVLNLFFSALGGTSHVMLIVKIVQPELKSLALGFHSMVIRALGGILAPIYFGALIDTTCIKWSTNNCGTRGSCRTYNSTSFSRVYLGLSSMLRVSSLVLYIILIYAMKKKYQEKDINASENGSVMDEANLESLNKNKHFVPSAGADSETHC
Method: Test compound (at 1 and 10 μM) was incubated with both SLC transporter-expressing HEK293 cells and control (empty vector) HEK293 cells for 2 min.

[4] = molecular target: T2, CYP2C8 (Homo sapiens, UniProt P10632); assay: Cytochrome P450 reaction phenotyping, recombinant CYP2C8 (Bactosomes)
T2 sequence (P10632 1-490): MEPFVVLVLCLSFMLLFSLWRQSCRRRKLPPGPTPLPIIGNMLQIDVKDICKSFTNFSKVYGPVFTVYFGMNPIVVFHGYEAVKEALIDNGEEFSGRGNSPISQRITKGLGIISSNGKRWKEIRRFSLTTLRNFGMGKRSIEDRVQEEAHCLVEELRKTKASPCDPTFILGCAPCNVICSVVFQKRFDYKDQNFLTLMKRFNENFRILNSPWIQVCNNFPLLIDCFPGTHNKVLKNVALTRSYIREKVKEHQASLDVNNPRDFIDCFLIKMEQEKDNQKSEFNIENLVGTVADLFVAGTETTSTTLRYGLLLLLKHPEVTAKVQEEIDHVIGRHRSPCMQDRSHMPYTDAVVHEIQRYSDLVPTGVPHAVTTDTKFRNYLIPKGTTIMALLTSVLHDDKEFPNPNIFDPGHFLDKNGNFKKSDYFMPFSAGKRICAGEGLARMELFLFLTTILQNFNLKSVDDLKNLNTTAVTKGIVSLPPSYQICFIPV
Method: Incubations were also performed using control Bactosomes™ (no P450 enzymes present) to reveal any non-enzymatic degradation. Control compounds known to be metabolised specifically by each P450 isoform were included. All incubations were performed singularly for each test compound.
Incubations were also performed using control Bactosomes™ (no P450 enzymes present) to reveal any non-enzymatic degradation. Control compounds known to be metabolised specifically by each P450 isoform were included. All incubations were performed singularly for each test compound. […] The reactions were stopped by transferring an aliquot of incubate to quench solvent at the appropriate time points, in a 1:3 ratio. The termination plates were centrifuged at 3,000 rpm for 20 min at 4° C. to precipitate the protein.

[5] = system: RXF 2282L; assay: 2D monolayer CellTiter-Blue viability, renal cancer RXF 2282L; format: cell-based; conditions: for Test/Control (%) at Drug Concentration: 72 h
Method: as §1, §2

Compound: COC(=O)Nc1nc2ccc(C(=O)c3ccccc3)cc2[nH]1 [Mebendazole, methyl N-(6-benzoyl-1H-benzimidazol-2-yl)carbamate]
- Test/Control (%) at Drug Concentration ([1]; RXF 1183, 1.0E+00 μM): 54%
- Test/Control (%) at Drug Concentration ([1]; RXF 1183, 1.0E−01 μM): 79%
- Test/Control (%) at Drug Concentration ([1]; RXF 1183, 1.0E−02 μM): 91%
- Test/Control (%) at Drug Concentration ([1]; RXF 1183, 1.0E−03 μM): 93%
- Test/Control (%) at Drug Concentration ([1]; RXF 1183, 1.0E−04 μM): 91%
- Test/Control (%) at Drug Concentration ([1]; RXF 1183, 3.2E+00 μM): 32%
- Test/Control (%) at Drug Concentration ([1]; RXF 1183, 3.2E−01 μM): 58%
- Test/Control (%) at Drug Concentration ([1]; RXF 1183, 3.2E−02 μM): 80%
- Test/Control (%) at Drug Concentration ([1]; RXF 1183, 3.2E−03 μM): 88%
- Test/Control (%) at Drug Concentration ([1]; RXF 1183, 3.2E−04 μM): 88%
- Abs. IC70 ([1]; RXF 1183, 72 h): >3.200 µM
- Rel. IC70 ([1]; RXF 1183, 72 h): >3.200 µM
- Bot. (%) ([1]; RXF 1183, 72 h, curve fit): 0%
- Top (%) ([1]; RXF 1183, 72 h, curve fit): 91%
- IC50 ([1]; RXF 1183, 72 h, read-out: Abs. IC50): 0.925 µM
- IC50 ([1]; RXF 1183, 72 h, read-out: Rel. IC50): 1.31 µM
- Test/Control (%) at Drug Concentration ([2]; Saos-2, 1.0E+00 μM): 19%
- Test/Control (%) at Drug Concentration ([2]; Saos-2, 1.0E+01 μM): 11%
- Test/Control (%) at Drug Concentration ([2]; Saos-2, 1.0E+02 μM): 6%
- Test/Control (%) at Drug Concentration ([2]; Saos-2, 1.0E−01 μM): 73%
- Test/Control (%) at Drug Concentration ([2]; Saos-2, 1.0E−02 μM): 74%
- Test/Control (%) at Drug Concentration ([2]; Saos-2, 3.2E+00 μM): 20%
- Test/Control (%) at Drug Concentration ([2]; Saos-2, 3.2E+01 μM): 12%
- Test/Control (%) at Drug Concentration ([2]; Saos-2, 3.2E−01 μM): 29%
- Test/Control (%) at Drug Concentration ([2]; Saos-2, 3.2E−02 μM): 73%
- Test/Control (%) at Drug Concentration ([2]; Saos-2, 3.2E−03 μM): 77%
- Uptake rate Mean ([3]; 1 μM, OATP1B1 HEK293 cells): 42.5 pmol/mg
- Uptake ratio ([3]; 1 μM): 0.9
- Uptake rate Mean ([3]; 1 μM, control (empty vector) HEK293 cells): 49.0 pmol/mg
- Uptake rate Mean ([3]; 10 μM, OATP1B1 HEK293 cells): 426 pmol/mg
- Uptake ratio ([3]; 10 μM): 0.9
- Uptake rate Mean ([3]; 10 μM, control (empty vector) HEK293 cells): 461 pmol/mg
- substrate of the human OATP1B1 transporter ([3]; 1 and 10 μM): not a substrate
- Compound Remaining (% of 0 min) ([4]; CYP2C8, 5 μM, 0 min): 100 % of 0 min
- Compound Remaining (% of 0 min) ([4]; CYP2C8, 5 μM, 5 min): 90.6 % of 0 min
- Compound Remaining (% of 0 min) ([4]; CYP2C8, 5 μM, 15 min): 93.4 % of 0 min
- Compound Remaining (% of 0 min) ([4]; CYP2C8, 5 μM, 30 min): 102 % of 0 min
- Compound Remaining (% of 0 min) ([4]; CYP2C8, 5 μM, 45 min): 99.1 % of 0 min
- % compound remaining ([4]; CYP2C8, 5 μM, time not stated): > 87.5%
- t1/2 ([4]; CYP2C8, substrate 5 μM): >2.25 h
- half-life at 5 μM ([4]; human, recombinant CYP2C8 (Bactosomes), pH 7.4): > 2.25 h
- Test/Control (%) at Drug Concentration ([5]; RXF 2282, 1.0E+00 μM): 71%
- Test/Control (%) at Drug Concentration ([5]; RXF 2282, 1.0E−01 μM): 83%
- Test/Control (%) at Drug Concentration ([5]; RXF 2282, 1.0E−02 μM): 84%
- Test/Control (%) at Drug Concentration ([5]; RXF 2282, 1.0E−03 μM): 88%
- Test/Control (%) at Drug Concentration ([5]; RXF 2282, 1.0E−04 μM): 108%
- Test/Control (%) at Drug Concentration ([5]; RXF 2282, 3.2E+00 μM): 57%
- Test/Control (%) at Drug Concentration ([5]; RXF 2282, 3.2E−01 μM): 77%
- Test/Control (%) at Drug Concentration ([5]; RXF 2282, 3.2E−02 μM): 86%
- Test/Control (%) at Drug Concentration ([5]; RXF 2282, 3.2E−03 μM): 89%
- Test/Control (%) at Drug Concentration ([5]; RXF 2282, 3.2E−04 μM): 92%
- Abs. IC70 ([5]; RXF 2282, 72 h): >3.200 µM
- Rel. IC70 ([5]; RXF 2282, 72 h): >3.200 µM
- Bot. (%) ([5]; RXF 2282, 72 h, curve fit): 0%
- Top (%) ([5]; RXF 2282, 72 h, curve fit): 102%
- IC50 ([5]; RXF 2282, 72 h, read-out: Abs. IC50): > 3.2 µM
- IC50 ([5]; RXF 2282, 72 h, read-out: Rel. IC50): > 3.2 µM
